In patent US11730732B2, “Oral suspension of temozolomide” (Orphelia Pharma, priority 2018, dated 2023):

Test: Particle size of temozolomide drug substance entering the composition
Format: physicochemical
Description: Characteristically, the composition of temozolomide according to the invention further contains at least one agent controlling the solid state of temozolomide in suspension. Indeed and during the development of the compositions of the invention, the Applicants observed an erratic recrystallisation of temozolomide after reconstitution of some suspensions with water. […] The recrystallisation triggered dose inhomogeneity within the suspensions, with large crystals settling down the bottom of the bottle or container. Furthermore, large crystals tended to clog the syringe for oral administration. This recrystallisation phenomenon was also observed in compositions containing povidone, the excipient used in the hospital-compounded formulations developed by Trissel et al. and Ambados et al.

Cn1nnc2c(C(N)=O)ncn2c1=O [temozolomide, 3-methyl-4-oxoimidazo[5,1-d][1,2,3,5]tetrazine-8-carboxamide]
particle size d90: < 100 μm
